In ChEMBL document CHEMBL1130967, “Modulation of apoptosis in human lymphocytes by adenosine analogues” (1998):

Experiment: Percentage of apoptotic cells in human peripheral blood mononuclear cells after 72 hour incubation at the concentration 60 uM
Format: functional
Conditions: at 60 µM
For `Nc1ccnc2c1ncn2[C@@H]1O[C@H](CO)[C@@H](O)[C@H]1O`, the Apoptotic cells was 10.7%.
In the case of `Nc1nc(Cl)nc2c1ncn2C1CCC(CO)O1` (stereo not given), the Apoptotic cells is reported as 11.4%.
`OC[C@H]1O[C@@H](n2cnc3c(NC4CCCCCC4)ncnc32)C[C@@H]1O` showed an Apoptotic cells of 11.1%.
In the case of `OC[C@H]1O[C@@H](n2cnc3c(NC4CCCCCC4)nc(Cl)nc32)C[C@@H]1O`, the Apoptotic cells is reported as 16.3%.
Work on `OC[C@H]1O[C@@H](n2cnc3c(NC4CCCC4)ncnc32)C[C@@H]1O` yielded an Apoptotic cells of 8.7%.
`OC[C@H]1O[C@@H](n2cnc3c(NC4CCCC4)nc(Cl)nc32)C[C@@H]1O` showed an Apoptotic cells of 38.8%.
Compound `OC[C@H]1O[C@@H](n2cnc3c(NC4CC4)ncnc32)C[C@@H]1O` has an Apoptotic cells of 10.6%.
In the case of `OC[C@H]1O[C@@H](n2cnc3c(NC4CC4)nc(Cl)nc32)C[C@@H]1O`, the Apoptotic cells is reported as 24.7%.
In the case of `Nc1nccc2c1ncn2[C@@H]1O[C@H](CO)[C@@H](O)[C@H]1O`, the Apoptotic cells is reported as 10.7%.
With `Nc1cc(Cl)nc2c1ncn2[C@@H]1O[C@H](CO)[C@@H](O)[C@H]1O` the Apoptotic cells was 12.1%.
With `Nc1nc(I)nc2c1ncn2[C@@H]1O[C@H](CO)[C@@H](O)[C@H]1O` the Apoptotic cells was 12.2%.
In the case of `Nc1nc(Cl)nc2c1ncn2C1OC(CO)CC1O` (stereo not given), the Apoptotic cells is reported as 10.4%.
`OC[C@H]1O[C@@H](n2cnc3c(NC4CCCC4)nc(Cl)nc32)[C@H](O)[C@@H]1O` showed an Apoptotic cells of 11%.
With `Nc1nc(Cl)nc2c1ncn2[C@@H]1O[C@H](CO)[C@@H](O)[C@H]1O` the Apoptotic cells was 91.9%.
For `OC[C@H]1O[C@@H](n2cnc3c(NC4CCCC4)cc(Cl)nc32)C[C@@H]1O`, the Apoptotic cells was 13.9%.
Compound `OC[C@H]1O[C@@H](n2cnc3c(NC4CC4)cc(Cl)nc32)C[C@@H]1O` has an Apoptotic cells of 11.4%.
Compound `OC[C@H]1O[C@@H](n2cnc3c(NC4CCCCCC4)ccnc32)C[C@@H]1O` has an Apoptotic cells of 9.6%.
`OC[C@H]1O[C@@H](n2cnc3c(NC4CCCCCC4)cc(Cl)nc32)C[C@@H]1O` gave an Apoptotic cells of 10.5%.
`OC[C@H]1O[C@@H](n2cnc3c(NC4CCCC4)ccnc32)C[C@@H]1O` showed an Apoptotic cells of 9.9%.
For `Nc1nc(Cl)cc2c1ncn2[C@H]1C[C@H](O)[C@@H](CO)O1`, the Apoptotic cells was 59.2%.
Compound `OC[C@H]1O[C@@H](n2cnc3c(NC4CCCC4)nc(Cl)cc32)C[C@@H]1O` has an Apoptotic cells of 15.2%.
`Nc1cc(Cl)nc2c1ncn2[C@H]1C[C@H](O)[C@@H](CO)O1` showed an Apoptotic cells of 10.6%.
`CNC(=O)C1OC(n2cnc3c(N)nc(Cl)nc32)CC1O` (stereo not given) showed an Apoptotic cells of 10.7%.
`Nc1nc(Cl)cc2c1ncn2C1O[C@H](CO)[C@@H](O)[C@H]1O` (stereo not given in full) gave an Apoptotic cells of 10.3%.
Work on `Nc1nc(Cl)nc2c1ncn2[C@H]1C[C@H](O)[C@@H](CO)O1` [CLADRIBINE] yielded an Apoptotic cells of 94.7%.

Experiment: Percentage of apoptotic cells in human peripheral blood mononuclear cells after 72 hour incubation at the concentration 10 uM
Format: functional
Conditions: at 10 µM
Work on `Nc1ccnc2c1ncn2[C@@H]1O[C@H](CO)[C@@H](O)[C@H]1O` yielded an Apoptotic cells of 16.6%.
`Nc1nc(Cl)nc2c1ncn2C1CCC(CO)O1` (stereo not given) showed an Apoptotic cells of 8.5%.
With `OC[C@H]1O[C@@H](n2cnc3c(NC4CCCCCC4)ncnc32)C[C@@H]1O` the Apoptotic cells was 9.4%.
Work on `OC[C@H]1O[C@@H](n2cnc3c(NC4CCCCCC4)nc(Cl)nc32)C[C@@H]1O` yielded an Apoptotic cells of 7.9%.
Compound `OC[C@H]1O[C@@H](n2cnc3c(NC4CCCC4)ncnc32)C[C@@H]1O` has an Apoptotic cells of 7.9%.
`OC[C@H]1O[C@@H](n2cnc3c(NC4CCCC4)nc(Cl)nc32)C[C@@H]1O` showed an Apoptotic cells of 10%.
For `OC[C@H]1O[C@@H](n2cnc3c(NC4CC4)ncnc32)C[C@@H]1O`, the Apoptotic cells was 9.5%.
With `OC[C@H]1O[C@@H](n2cnc3c(NC4CC4)nc(Cl)nc32)C[C@@H]1O` the Apoptotic cells was 7.7%.
`Nc1nccc2c1ncn2[C@@H]1O[C@H](CO)[C@@H](O)[C@H]1O` showed an Apoptotic cells of 6.5%.
`Nc1cc(Cl)nc2c1ncn2[C@@H]1O[C@H](CO)[C@@H](O)[C@H]1O` gave an Apoptotic cells of 10.4%.
For `Nc1nc(I)nc2c1ncn2[C@@H]1O[C@H](CO)[C@@H](O)[C@H]1O`, the Apoptotic cells was 12.1%.
In the case of `Nc1nc(Cl)nc2c1ncn2C1OC(CO)CC1O` (stereo not given), the Apoptotic cells is reported as 13%.
`OC[C@H]1O[C@@H](n2cnc3c(NC4CCCC4)nc(Cl)nc32)[C@H](O)[C@@H]1O` gave an Apoptotic cells of 10.4%.
With `Nc1nc(Cl)nc2c1ncn2[C@@H]1O[C@H](CO)[C@@H](O)[C@H]1O` the Apoptotic cells was 41.8%.
Compound `OC[C@H]1O[C@@H](n2cnc3c(NC4CCCC4)cc(Cl)nc32)C[C@@H]1O` has an Apoptotic cells of 9.7%.
With `OC[C@H]1O[C@@H](n2cnc3c(NC4CC4)cc(Cl)nc32)C[C@@H]1O` the Apoptotic cells was 10.4%.
`OC[C@H]1O[C@@H](n2cnc3c(NC4CCCCCC4)ccnc32)C[C@@H]1O` showed an Apoptotic cells of 8.1%.
Work on `OC[C@H]1O[C@@H](n2cnc3c(NC4CCCCCC4)cc(Cl)nc32)C[C@@H]1O` yielded an Apoptotic cells of 7.9%.
For `OC[C@H]1O[C@@H](n2cnc3c(NC4CCCC4)ccnc32)C[C@@H]1O`, the Apoptotic cells was 9.8%.
`Nc1nc(Cl)cc2c1ncn2[C@H]1C[C@H](O)[C@@H](CO)O1` showed an Apoptotic cells of 20.2%.
For `OC[C@H]1O[C@@H](n2cnc3c(NC4CCCC4)nc(Cl)cc32)C[C@@H]1O`, the Apoptotic cells was 13.5%.
`Nc1cc(Cl)nc2c1ncn2[C@H]1C[C@H](O)[C@@H](CO)O1` showed an Apoptotic cells of 8.7%.
In the case of `CNC(=O)C1OC(n2cnc3c(N)nc(Cl)nc32)CC1O` (stereo not given), the Apoptotic cells is reported as 8.1%.
In the case of `Nc1nc(Cl)cc2c1ncn2C1O[C@H](CO)[C@@H](O)[C@H]1O` (stereo not given in full), the Apoptotic cells is reported as 9%.
Compound `Nc1nc(Cl)nc2c1ncn2[C@H]1C[C@H](O)[C@@H](CO)O1` [CLADRIBINE] has an Apoptotic cells of 91.2%.

Experiment: Percentage of apoptotic cells in human peripheral blood mononuclear cells after 72 hour incubation at the concentration 30 uM
Format: functional
Conditions: at 30 µM
In the case of `Nc1ccnc2c1ncn2[C@@H]1O[C@H](CO)[C@@H](O)[C@H]1O`, the Apoptotic cells is reported as 12.8%.
Work on `Nc1nc(Cl)nc2c1ncn2C1CCC(CO)O1` (stereo not given) yielded an Apoptotic cells of 9.6%.
In the case of `OC[C@H]1O[C@@H](n2cnc3c(NC4CCCCCC4)ncnc32)C[C@@H]1O`, the Apoptotic cells is reported as 9.8%.
For `OC[C@H]1O[C@@H](n2cnc3c(NC4CCCCCC4)nc(Cl)nc32)C[C@@H]1O`, the Apoptotic cells was 12.3%.
Compound `OC[C@H]1O[C@@H](n2cnc3c(NC4CCCC4)ncnc32)C[C@@H]1O` has an Apoptotic cells of 7.1%.
With `OC[C@H]1O[C@@H](n2cnc3c(NC4CCCC4)nc(Cl)nc32)C[C@@H]1O` the Apoptotic cells was 18.8%.
In the case of `OC[C@H]1O[C@@H](n2cnc3c(NC4CC4)ncnc32)C[C@@H]1O`, the Apoptotic cells is reported as 9.5%.
`OC[C@H]1O[C@@H](n2cnc3c(NC4CC4)nc(Cl)nc32)C[C@@H]1O` showed an Apoptotic cells of 17.9%.
`Nc1nccc2c1ncn2[C@@H]1O[C@H](CO)[C@@H](O)[C@H]1O` gave an Apoptotic cells of 11.9%.
Work on `Nc1cc(Cl)nc2c1ncn2[C@@H]1O[C@H](CO)[C@@H](O)[C@H]1O` yielded an Apoptotic cells of 11.1%.
`Nc1nc(I)nc2c1ncn2[C@@H]1O[C@H](CO)[C@@H](O)[C@H]1O` gave an Apoptotic cells of 12%.
With `Nc1nc(Cl)nc2c1ncn2C1OC(CO)CC1O` (stereo not given) the Apoptotic cells was 11.4%.
For `OC[C@H]1O[C@@H](n2cnc3c(NC4CCCC4)nc(Cl)nc32)[C@H](O)[C@@H]1O`, the Apoptotic cells was 9.6%.
In the case of `Nc1nc(Cl)nc2c1ncn2[C@@H]1O[C@H](CO)[C@@H](O)[C@H]1O`, the Apoptotic cells is reported as 82.7%.
`OC[C@H]1O[C@@H](n2cnc3c(NC4CCCC4)cc(Cl)nc32)C[C@@H]1O` gave an Apoptotic cells of 12%.
`OC[C@H]1O[C@@H](n2cnc3c(NC4CC4)cc(Cl)nc32)C[C@@H]1O` gave an Apoptotic cells of 10.8%.
For `OC[C@H]1O[C@@H](n2cnc3c(NC4CCCCCC4)ccnc32)C[C@@H]1O`, the Apoptotic cells was 8.9%.
Work on `OC[C@H]1O[C@@H](n2cnc3c(NC4CCCCCC4)cc(Cl)nc32)C[C@@H]1O` yielded an Apoptotic cells of 9.6%.
With `OC[C@H]1O[C@@H](n2cnc3c(NC4CCCC4)ccnc32)C[C@@H]1O` the Apoptotic cells was 9.5%.
With `Nc1nc(Cl)cc2c1ncn2[C@H]1C[C@H](O)[C@@H](CO)O1` the Apoptotic cells was 34.5%.
`OC[C@H]1O[C@@H](n2cnc3c(NC4CCCC4)nc(Cl)cc32)C[C@@H]1O` gave an Apoptotic cells of 14.9%.
With `Nc1cc(Cl)nc2c1ncn2[C@H]1C[C@H](O)[C@@H](CO)O1` the Apoptotic cells was 9.8%.
Work on `CNC(=O)C1OC(n2cnc3c(N)nc(Cl)nc32)CC1O` (stereo not given) yielded an Apoptotic cells of 10.4%.
For `Nc1nc(Cl)cc2c1ncn2C1O[C@H](CO)[C@@H](O)[C@H]1O` (stereo not given in full), the Apoptotic cells was 9.6%.
Compound `Nc1nc(Cl)nc2c1ncn2[C@H]1C[C@H](O)[C@@H](CO)O1` [CLADRIBINE] has an Apoptotic cells of 93.8%.

Experiment: Percentage of apoptotic cells in human peripheral blood mononuclear cells after 72 hour incubation at the concentration 1 uM
Format: functional
Conditions: at 1 µM
In the case of `Nc1ccnc2c1ncn2[C@@H]1O[C@H](CO)[C@@H](O)[C@H]1O`, the Apoptotic cells is reported as 8%.
Compound `Nc1nc(Cl)nc2c1ncn2C1CCC(CO)O1` (stereo not given) has an Apoptotic cells of 4.7%.
For `OC[C@H]1O[C@@H](n2cnc3c(NC4CCCCCC4)ncnc32)C[C@@H]1O`, the Apoptotic cells was 8%.
Compound `OC[C@H]1O[C@@H](n2cnc3c(NC4CCCCCC4)nc(Cl)nc32)C[C@@H]1O` has an Apoptotic cells of 8.2%.
`OC[C@H]1O[C@@H](n2cnc3c(NC4CCCC4)ncnc32)C[C@@H]1O` gave an Apoptotic cells of 6.7%.
Work on `OC[C@H]1O[C@@H](n2cnc3c(NC4CCCC4)nc(Cl)nc32)C[C@@H]1O` yielded an Apoptotic cells of 4.7%.
`OC[C@H]1O[C@@H](n2cnc3c(NC4CC4)ncnc32)C[C@@H]1O` gave an Apoptotic cells of 7.1%.
With `OC[C@H]1O[C@@H](n2cnc3c(NC4CC4)nc(Cl)nc32)C[C@@H]1O` the Apoptotic cells was 7.8%.
For `Nc1nccc2c1ncn2[C@@H]1O[C@H](CO)[C@@H](O)[C@H]1O`, the Apoptotic cells was 9.9%.
With `Nc1cc(Cl)nc2c1ncn2[C@@H]1O[C@H](CO)[C@@H](O)[C@H]1O` the Apoptotic cells was 10.2%.
`Nc1nc(I)nc2c1ncn2[C@@H]1O[C@H](CO)[C@@H](O)[C@H]1O` showed an Apoptotic cells of 9.1%.
`Nc1nc(Cl)nc2c1ncn2C1OC(CO)CC1O` (stereo not given) showed an Apoptotic cells of 7.7%.
`OC[C@H]1O[C@@H](n2cnc3c(NC4CCCC4)nc(Cl)nc32)[C@H](O)[C@@H]1O` gave an Apoptotic cells of 5.4%.
With `Nc1nc(Cl)nc2c1ncn2[C@@H]1O[C@H](CO)[C@@H](O)[C@H]1O` the Apoptotic cells was 8.8%.
In the case of `OC[C@H]1O[C@@H](n2cnc3c(NC4CCCC4)cc(Cl)nc32)C[C@@H]1O`, the Apoptotic cells is reported as 8.6%.
Compound `OC[C@H]1O[C@@H](n2cnc3c(NC4CC4)cc(Cl)nc32)C[C@@H]1O` has an Apoptotic cells of 7.3%.
Work on `OC[C@H]1O[C@@H](n2cnc3c(NC4CCCCCC4)ccnc32)C[C@@H]1O` yielded an Apoptotic cells of 7.7%.
`OC[C@H]1O[C@@H](n2cnc3c(NC4CCCCCC4)cc(Cl)nc32)C[C@@H]1O` gave an Apoptotic cells of 7.4%.
Work on `OC[C@H]1O[C@@H](n2cnc3c(NC4CCCC4)ccnc32)C[C@@H]1O` yielded an Apoptotic cells of 9.8%.
For `Nc1nc(Cl)cc2c1ncn2[C@H]1C[C@H](O)[C@@H](CO)O1`, the Apoptotic cells was 16.6%.
Compound `OC[C@H]1O[C@@H](n2cnc3c(NC4CCCC4)nc(Cl)cc32)C[C@@H]1O` has an Apoptotic cells of 13.1%.
In the case of `Nc1cc(Cl)nc2c1ncn2[C@H]1C[C@H](O)[C@@H](CO)O1`, the Apoptotic cells is reported as 5%.
For `CNC(=O)C1OC(n2cnc3c(N)nc(Cl)nc32)CC1O` (stereo not given), the Apoptotic cells was 4.5%.
For `Nc1nc(Cl)cc2c1ncn2C1O[C@H](CO)[C@@H](O)[C@H]1O` (stereo not given in full), the Apoptotic cells was 9.6%.
Work on `Nc1nc(Cl)nc2c1ncn2[C@H]1C[C@H](O)[C@@H](CO)O1` [CLADRIBINE] yielded an Apoptotic cells of 91%.
